Measured values published in patent US5747235A, “Silver halide light sensitive emulsion layer having enhanced photographic sensitivity” (Eastman Kodak Company, priority 1996, dated 1998).
Like-named read-outs stand apart in the source and are kept apart here.

Legend:
[1] = Example 15: photographic sensitivity and fog, color format, blue sensitized emulsion T-2; conditions: for Photographic Sensitivity SWR2B: control=100
Description: (§1) The AgBrI tabular silver halide emulsion T-2 from Example 3 was optimally chemically and spectrally sensitized by adding NaSCN, 1.07 mmole of the blue sensitizing dye D-I per mole of silver, Na3 Au(S2 O3)2 ·2H2 O, Na2 S2 O3 ·5H2 O, and a benzothiazolium finish modifier and then subjecting the emulsion to a heat cycle to 65° C. The hydroxybenzene, 2,4-disulfocatechcol (HB3) at a concentration of 13×10^-3 mole/mole Ag was added to the emulsion melt before the start of the chemical sensitization procedure. This chemically sensitized emulsion was then used to prepare the experimental coating variations given in Table X. For all the variations in Table X, the antifoggant and stabilizer tetraazaindene (TAI) was added to the emulsion melt in an amount of 1.75 g/mole Ag before any further addenda. The fragmentable two-electron donors S-3, S-9, S-6, or S-8 were then added to the emulsion melt.
(§2) The melts were prepared for coating by adding additional water, deionized gelatin and coating surfactants. Coatings were prepared by combining the emulsion melts with a melt containing deionized gelatin and an aqueous dispersion of the cyan-forming color coupler CC-1 and coating the resulting mixture on acetate support. The final coatings contained Ag at 0.81 g/m^2, coupler at 1.61 g/m^2, and gelatin at 3.23 g/m^2. The coatings were overcoated with a protective layer containing gelatin at 1.08 g/m^2, coating surfactants, and a bisvinylsulfonylmethyl ether as a gelatin hardening agent. The structure of the color coupler CC-1 is given below: [drawing 120]
(§3) For photographic evaluation, each of the coating strips was exposed for 0.01 sec to a 3000K color temperature tungsten lamp filtered to give an effective color temperature of 5500K and further filtered through a Kodak Wratten filter number 2B, and a step wedge ranging in density from 0 to 4 density units in 0.20 density steps. This exposure gives light absorbed mainly by the blue sensitizing dye. The exposed film strips were developed for 31/4 minutes in Kodak C-41 color developer. SWR2B, relative sensitivity for this filtered exposure, was evaluated at a cyan density of 0.15 units above fog.
(§4) The AgBrl tabular emulsion T-2 as described in Example 3 was sensitized as described in Example 10 except that the hydroxybenzene HB3 was added at the completion of the chemical sensitization procedure. For all the variations in Table XV the antifoggant and stabilizer tetraaazindene (TAI) was added to the emulsion melt in an amount of 1.75 g/mole Ag before any further addenda. The fragmentable electron donor compounds S-19, PMT-3, and PMT-4 were then added to the emulsion melt. The melts were then coated and tested as described in Example 10.

[2] = known acceptors used in flash photolysis; cited from earlier work
[3] = Example 16: photographic sensitivity and fog, color format, blue sensitized emulsion T-2
Description: as §1, §2, §3
as §4, with “XVI,” for “XV”, “tetraazaindene (TAI),” for “tetraaazindene (TAI)”, “two-electron” for “electron”, “TU-2” for “S-19, PMT-3,”, “TU-3” for “PMT-4”

[4] = as above; conditions: control=100
[5] = cited from earlier work

CC(C(=O)O)N(CC(=O)O)c1ccc(S(=O)(=O)N2CCSCC2)cc1 (stereo not shown) [Compound S-19]
Fog ([1]; 4.4 x10^-6 mol/mol Ag): 0.06 | Photographic Sensitivity SWR2B ([1]; 4.4 x10^-6 mol/mol Ag): 115 | Fog ([1]; 8.8 x10^-6 mol/mol Ag): 0.08 | Photographic Sensitivity SWR2B ([1]; 8.8 x10^-6 mol/mol Ag): 112

O=C1C(Cl)=C(Cl)C(=O)C(Cl)=C1Cl [2,3,5,6-tetrachlorobenzoquinone]
reduction potential (Ered) [2]: 0.00 V

CC(C(=O)O)N(CCC(=O)N(C)CCN(C)C(=S)N(C)C)c1ccccc1 (stereo not shown) [TU-2]
Fog ([3]; 0.45 x10^-6 mol/molAg): 0.08 | Fog ([3]; 1.4 x10^-6 mol/molAg): 0.09 | Fog ([3]; 4.5 x10^-6 mol/molAg): 0.11 | Photographic Sensitivity SWR3B ([4]; 0.45 x10^-6 mol/molAg): 118 | Photographic Sensitivity SWR3B ([4]; 1.4 x10^-6 mol/molAg): 135 | Photographic Sensitivity SWR3B ([4]; 4.5 x10^-6 mol/molAg): 159

N#Cc1c2ccccc2c(C#N)c2ccccc12 [DCA, 9,10-dicyanoanthracene]
reduction potential (Ered) [2]: -0.91 V

CC(C(=O)O)N(CCC(=O)N(C)CCN(C)C(=S)N(C)C)c1ccc(C=O)cc1 (stereo not shown) [TU-3]
Fog ([3]; 14 x10^-6 mol/molAg): 0.09 | Fog ([3]; 45 x10^-6 mol/molAg): 0.09 | Fog ([3]; 140 x10^-6 mol/molAg): 0.10 | Photographic Sensitivity SWR3B ([4]; 14 x10^-6 mol/molAg): 145 | Photographic Sensitivity SWR3B ([4]; 45 x10^-6 mol/molAg): 155 | Photographic Sensitivity SWR3B ([4]; 140 x10^-6 mol/molAg): 166

CC(C(=O)O)N(CCC(=O)Nc1cccc(-n2nnnc2S)c1)c1ccc(C=O)cc1 (stereo not shown) [PMT-3]
Fog ([1]; 0.045 x10^-6 mol/mol Ag): 0.07 | Photographic Sensitivity SWR2B ([1]; 0.045 x10^-6 mol/mol Ag): 151 | Fog ([1]; 0.14 x10^-6 mol/mol Ag): 0.08 | Photographic Sensitivity SWR2B ([1]; 0.14 x10^-6 mol/mol Ag): 151 | Fog ([1]; 0.45 x10^-6 mol/mol Ag): 0.07 | Photographic Sensitivity SWR2B ([1]; 0.45 x10^-6 mol/mol Ag): 141

O=C1C=CC(=O)C(Cl)=C1 [chlorobenzoquinone]
reduction potential (Ered) [2]: -0.34 V

N#Cc1ccc2c(C#N)c3cc(C#N)ccc3c(C#N)c2c1 [TCA, tetracyanoanthracene]
reduction potential (Ered) [2]: -0.44 V

O=C1C=C(Cl)C(=O)C=C1Cl [2,5-dichlorobenzoquinone]
reduction potential (Ered) [2]: -0.18 V

CC(C(=O)O)N(CC(=O)O)c1ccc(S(=O)(=O)Nc2cccc(-n3nnnc3S)c2)cc1 (stereo not shown) [PMT-4]
Fog ([1]; 0.14 x10^-6 mol/mol Ag): 0.06 | Photographic Sensitivity SWR2B ([1]; 0.14 x10^-6 mol/mol Ag): 115 | Fog ([1]; 0.45 x10^-6 mol/mol Ag): 0.07 | Photographic Sensitivity SWR2B ([1]; 0.45 x10^-6 mol/mol Ag): 120

N#Cc1ccc2c(C#N)c3ccccc3c(C#N)c2c1 [TriCA, 2,9,10-tricyanoanthracene]
reduction potential (Ered) [2]: -0.67 V

[Cl][Sn][Cl] [SnCl2]
oxidation potential ([5]; SnCl2, CRC Handbook): ~ -0.10 V

B [borohydride]
oxidation potential ([5]; literature): -0.48 V vs SCE
